“And” between values parts separate entries of the source, which are not always exact repeats. Equal entries are not always repeated.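 Values below derive from 48-hour exposures of cells grown in 96-well plates, with endpoints linearly interpolated between the two concentrations bracketing the appropriate inhibition level. At the GI50, growth is halved. At the TGI there is no net growth.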
What was measured:
Assay in all cases: NCI tumour cell line growth inhibition, 48 h
HCC-2998 colon = test system: HCC-2998 colon
SF-295 CNS = test system: SF-295 CNS
SK-MEL-28 melanoma = test system: SK-MEL-28 melanoma
LOX IMVI melanoma = test system: LOX IMVI melanoma
SF-539 CNS = test system: SF-539 CNS
IGROV1 ovarian = test system: IGROV1 ovarian
MOLT-4 leukemia = test system: MOLT-4 leukemia
CAKI-1 renal = test system: CAKI-1 renal
HOP-62 NSCLC = test system: HOP-62 NSCLC
M14 melanoma = test system: M14 melanoma
NCI-H226 lung = test system: NCI-H226 lung
NCI/ADR-RES ovarian = test system: NCI/ADR-RES ovarian
SK-MEL-2 melanoma = test system: SK-MEL-2 melanoma
BT-549 breast = test system: BT-549 breast

SMILES | TGI (HCC-2998 colon) | TGI (SF-295 CNS) | TGI (SK-MEL-28 melanoma) | TGI (LOX IMVI melanoma) | TGI (SF-539 CNS) | TGI (IGROV1 ovarian) | TGI (MOLT-4 leukemia) | TGI (CAKI-1 renal) | TGI (HOP-62 NSCLC) | TGI (M14 melanoma) | TGI (NCI-H226 lung) | TGI (NCI/ADR-RES ovarian) | TGI (SK-MEL-2 melanoma) | TGI (BT-549 breast) | GI50 (HCC-2998 colon) | GI50 (SF-295 CNS) | GI50 (SK-MEL-28 melanoma) | GI50 (CAKI-1 renal) | GI50 (M14 melanoma) | GI50 (NCI-H226 lung)
CCN1C(c2ccccc2)=CC(c2ccccc2)(C(Cl)(Cl)Cl)C=C1c1ccccc1 | 24.9 µM | > 100 µM | 67 µM | 56.7 µM | 37 µM | 27.9 µM | 61.8 µM | > 100 µM | > 100 µM | 26.4 µM | > 100 µM | > 100 µM |  |  |  |  |  |  |  | 
COP(=O)(OC)[C@@](O)(c1ccccc1)[C@@H](O)[C@@H](O)c1ccccc1 |  | > 100 µM | > 100 µM | 37.9 µM | > 100 µM | > 100 µM |  | > 100 µM |  | > 100 µM | > 100 µM | > 100 µM | > 100 µM | > 100 µM |  |  |  |  |  | 
COc1cc(CNc2ccc(C)cc2)cc(OC)c1OC | 1.16 µM and 2.48 µM | 0.439 µM | > 100 µM | > 100 µM |  | > 100 µM | > 100 µM | > 100 µM | > 100 µM | > 100 µM |  |  | > 100 µM |  | 0.124 µM and 0.365 µM | 0.155 µM and 0.333 µM | 0.525 µM | 0.235 µM and 0.0641 µM | 0.124 µM | 0.284 µM and 0.72 µM
CC(=O)NC1=C(NCCO)C(=O)c2ccccc2C1=O | > 50 µM | > 50 µM | > 50 µM | > 50 µM | > 50 µM | > 50 µM | > 50 µM |  | > 50 µM | > 50 µM | > 50 µM |  | > 50 µM |  |  |  |  |  |  | 
O=C(O)C(Cc1ccc(O)cc1)N=Cc1nc(-c2ccccc2)oc1O (configuration not stated) | > 100 µM | > 100 µM | > 100 µM | > 100 µM | > 100 µM |  |  | > 100 µM | > 100 µM | > 100 µM | > 100 µM |  | > 100 µM |  |  |  |  |  |  | 
COc1ccccc1NC(=S)Nc1ccccn1 |  | > 100 µM | > 100 µM | > 100 µM | > 100 µM | > 100 µM | > 100 µM | > 100 µM | > 100 µM | > 100 µM | > 100 µM | > 100 µM | > 100 µM | > 100 µM |  |  |  |  |  | 
Nc1ccc(C(=O)NN2C(=O)C(Cl)C2c2ccc(O)cc2)cc1 (configuration not stated) |  | > 100 µM | 40.7 µM | 22.7 µM | 34.3 µM | 32.9 µM | 37.8 µM | 51.3 µM | 38.4 µM | 31.4 µM | 57.3 µM |  | 31.4 µM |  |  |  |  |  |  | 
COC(=O)/C=C1/OC(c2ccccc2)=C(Br)C1=O | > 100 µM |  | > 100 µM | 43.3 µM | > 100 µM |  | > 100 µM | 51.3 µM | > 100 µM | > 100 µM | > 100 µM |  |  | 53.4 µM |  |  |  |  |  | 
O=C(c1ccsc1)c1nccc2c1cnc1ccccc12 |  | > 100 µM | > 100 µM | > 100 µM | > 100 µM | 17.1 µM | 24.3 µM | > 100 µM | > 100 µM | > 100 µM | > 100 µM | > 100 µM | > 100 µM | > 100 µM |  |  |  |  |  | 
O=C1C[C@@H]2[C@@H](C=CC23CCCC3)N1O | > 100 µM | > 100 µM | > 100 µM | > 100 µM | > 100 µM | > 100 µM | > 100 µM | > 100 µM | > 100 µM | > 100 µM | > 100 µM |  | > 100 µM |  |  |  |  |  |  | 
CCOC(=O)/C(=C\n1c(=O)sc2ccccc21)C(=O)c1ccccc1 | > 100 µM | > 100 µM | > 100 µM | > 100 µM | > 100 µM | > 100 µM | > 100 µM | 64.7 µM | > 100 µM | > 100 µM | > 100 µM | > 100 µM | > 100 µM |  |  |  |  |  |  | 
CCOC(=O)C1Cc2ccc(C)cc2C1=O (configuration not stated) | > 100 µM | > 100 µM | > 100 µM | > 100 µM | > 100 µM | > 100 µM | > 100 µM | > 100 µM | > 100 µM | > 100 µM | > 100 µM | > 100 µM | > 100 µM |  |  |  |  |  |  | 
COc1cc(Br)c(/C=N/N=C(\N)NO)cc1OC | 26.3 µM | > 100 µM | > 100 µM | 61.2 µM | 58.7 µM | > 100 µM | > 100 µM | 79 µM | 70.3 µM | 34.7 µM | 31.5 µM |  | > 100 µM |  |  |  |  |  |  | 
COc1cc2c(c(OC)c1OC)[C@@H]1CCCCC[C@@H]1CCC2=O | > 100 µM | > 100 µM | > 100 µM | 38.9 µM | > 100 µM | > 100 µM | > 64.7 µM | > 100 µM | > 100 µM | > 100 µM | > 100 µM |  | > 100 µM |  |  |  |  |  |  | 
O=C1NCC2(CCN(CC3COc4ccccc4O3)CC2)N1c1ccccc1 (configuration not stated) | > 100 µM | > 100 µM | > 100 µM | > 100 µM | > 100 µM | > 100 µM | > 100 µM | > 100 µM | > 100 µM | > 100 µM | > 100 µM | > 100 µM | > 100 µM |  |  |  |  |  |  | 
O=C(O)CNc1ncc2c(n1)-c1ccccc1OC2 |  | > 100 µM | > 100 µM | > 100 µM | > 100 µM | > 100 µM | > 100 µM | > 100 µM | > 100 µM | > 100 µM |  | > 100 µM | > 100 µM |  |  |  |  |  |  | 
O=C(NC1C(=O)NC(CCc2ccccc2)NC1=O)OCc1ccccc1 (configuration not stated) |  | > 100 µM | > 100 µM | > 100 µM | > 100 µM | > 100 µM | > 100 µM | > 100 µM | > 100 µM | > 100 µM | > 100 µM | > 100 µM |  |  |  |  |  |  |  | 
CC1(C)COC(c2cccc(C(=O)c3ccccc3)c2)=N1 | > 100 µM | > 100 µM | > 100 µM | > 100 µM |  | > 100 µM | 75.9 µM | > 100 µM | > 100 µM |  |  | > 100 µM | > 100 µM |  |  |  |  |  |  | 
c1ccc(CSCCC(SCc2ccccc2)SCc2ccccc2)cc1 | > 10 µM | > 10 µM | > 10 µM | > 10 µM | > 10 µM | > 10 µM | > 10 µM | > 10 µM | > 10 µM | > 10 µM | > 10 µM | > 10 µM | > 10 µM |  |  |  |  |  |  | 

From PubChem BioAssay (NCI)
